In US7855290B2, “Pyridine derivatives and pyrimidine derivatives (3)” (Eisai R&D Management Co., Ltd., priority 2005, dated 2010):

Test system: Human gastric cancer cells (MKN-45)
Experiment: Inhibitory activity against the tumor growth of human gastric cancer cells (MKN-45) transplanted in nude mice
Type: in vivo, BALB/c (nu/nu) mice
Details: orally twice every day, tumor volume at fifth day, relative to control group
Description: Human gastric cancer cells (MNK-45) were suspended in HBSS (purchased from GIBCO BRL). The cell suspension (5×10^7 cells/ml) was transplanted under the right flank skin of seven-week-old female BALB/c (nu/nu) mice at a volume of 0.1 ml. When tumor volume of the site transplanted with MNK-45 cells grew to 100-200 mm^3, mice were grouped so that the groups might be equalized in average tumor volume. The test substance was suspended in 0.5% methylcellulose, a mixed solution of hydrochloric acid and glucose (0.1N hydrochloric acid:5% glucose=1:9) or a mixed solution of dimethyl sulfoxide-Tween-glucose (dimethyl sulfoxide:Tween 80:5% glucose (containing equimolar hydrochloric acid to the test substance)=7:13:80), were administered orally to the mice twice every day. The tumor volumes were determined at the fifth day after the initiation of the administration of the test substances. The major axis and the minor axis of tumor were measured by a caliper to calculate ½×(major axis×minor axis×minor axis) for the tumor volume. The experiment was conducted using 10 mice in the control group (solvent-administered group) and 5 mice in test substance-administered group. The ratio in tumor volume of the group for administrating the test substance relative to that of the control group was defined as a tumor proliferation rate (%).

| SMILES | Tumor proliferation rate (%) (Dose 30 mg/kg/time) | Tumor proliferation rate (%) (Dose 100 mg/kg/time) |
| --- | --- | --- |
| CN(C)CCN1CCN(C(=O)Nc2cc(Oc3ccc(NC(=O)C4(C(=O)Nc5ccc(F)cc5)CC4)c(F)c3)ccn2)CC1 [Example 2, N-[4-({2-[({4-[2-(Dimethylamino)ethyl]piperazin-1-yl}carbonyl)amino]pyridin-4-yl}oxy)-2-fluorophenyl]-N′-(4-fluorophenyl)cyclopropane-1,1-dicarboxamide] | 73.3 | 27.5 |
| CN(C)CC1CCN(C(=O)Nc2cc(Oc3ccc(NC(=O)C4(C(=O)Nc5ccc(F)cc5)CC4)c(F)c3)ccn2)CC1 [Example 8, N-[4-({2-[({4-[(Dimethylamino)methyl]piperidin-1-yl}carbonyl)amino]pyridin-4-yl}oxy)-2-fluorophenyl]-N′-(4-fluorophenyl)cyclopropane-1,1-dicarboxamide] | 53 | 23.3 |
| CN1CCC(N(C)C(=O)Nc2cc(Oc3ccc(NC(=O)C4(C(=O)Nc5ccc(F)cc5)CC4)cc3)ccn2)CC1 [Example 12] | 73.9 | 27.6 |
